This note sets out measurements from patent US11109588B2, “Stable liquid formulations and methods of using the same” (priority 2019, dated 2021).

The structures appear in SMILES notation.

The data set in a line: Storage stability of liquid compositions in a sealed container, 8 weeks at 40° C., loss by HPLC. Type of data set: physicochemical. The note with it: inert ingredients of Composition #7 of Table 3, aged 8 weeks at 40° C.

As for `COC(=O)c1sccc1S(=O)(=O)NC(=O)Nc1nc(C)nc(OC)n1` [Thifensulfuron-methyl, thifensulfuron-methyl], the “relative loss of thifensulfuron-methyl” value is recorded as “less than 5 % w/w”.
